Data published in patent US9340577B2, “HLA binding motifs and peptides and their uses” (priority 1992, dated 2016).
No end group written: not given here.

Legend:
A*2902 = A*2902 (Homo sapiens, UniProt P04439, A270S/D101N/D185E/E176V/E277Q/E87Q/F33T/G231S/H175R/I121M/I218V/I322F/K168Q/L300P/L318F/M331R/P208A/P217A/Q86L/T323A/T345S/V100A/V358M); experiment: biochemical; assay type: binding
A*3002 = A*3002 (Homo sapiens, UniProt P04439, D101N/D140H/D185E/E176R/F33S/G80R/H175R/K168Q/Q94H/R138E/R41S/V100E); experiment: biochemical; assay type: binding
A*3002, sequence (P04439 whole entry, looked up, the tested form may be a part, stated change not applied): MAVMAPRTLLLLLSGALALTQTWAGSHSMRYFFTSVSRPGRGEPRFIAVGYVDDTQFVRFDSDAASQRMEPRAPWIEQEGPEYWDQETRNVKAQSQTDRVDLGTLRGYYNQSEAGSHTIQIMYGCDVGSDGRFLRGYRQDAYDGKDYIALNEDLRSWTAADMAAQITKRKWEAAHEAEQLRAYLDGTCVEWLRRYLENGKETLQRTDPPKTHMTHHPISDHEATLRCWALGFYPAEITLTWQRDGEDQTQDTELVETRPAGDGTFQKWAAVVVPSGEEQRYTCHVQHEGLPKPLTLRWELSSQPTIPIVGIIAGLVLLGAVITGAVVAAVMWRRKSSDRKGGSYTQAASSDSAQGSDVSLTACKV

HLA-A1 (A*0101) = HLA-A1 (A*0101) (Homo sapiens, UniProt P04439, A114D/A174V/A182V/D101N/D185E/E176A/E190D/L180R/Q94H/R68K/S129P/T187R/V100A/V91M/W191G); experiment: biochemical; assay type: binding
A*2601 = A*2601 (Homo sapiens, UniProt P04439, A114D/A173T/A270S/D101N/D185E/E277Q/E87N/F33Y/G231S/I121R/I218V/K168Q/L180W/L300P/L318F/P208A/P217A/Q86R/Q94H/R138Q/S129P/T187R/T323A/T345S/V100A/V358M); experiment: biochemical; assay type: binding
HLA-A24 = assay type: binding, human
HLA-A*0201 (HLA-A2.1) = HLA-A*0201 (HLA-A2.1) (Homo sapiens, UniProt P04439, D140Y/D185E/D98H/E176V/E277Q/G131W/G231S/I119V/I121R/I166T/I218V/L300P/L318F/N151K/N90K/P208A/P217A/Q86G/Q94H/R138H/R169H/T345S); experiment: biochemical; assay type: binding
A2.1 HLA molecules = A2.1 HLA molecules (Homo sapiens, UniProt P04439, D140Y/D185E/D98H/E176V/E277Q/G131W/G231S/I119V/I121R/I166T/I218V/L300P/L318F/N151K/N90K/P208A/P217A/Q86G/Q94H/R138H/R169H/T345S); assay type: binding; parameters: A*0201 / A2.1 Binding / A2 Bind. / A2 / A2.1 (binding capacity): scale not given here

Compound	IC50 (A*2902)	IC50 (A*3002)	IC50 (HLA-A1 (A*0101))	IC50 (A*2601)	also measured
CC[C@H](C)[C@H](N)C(=O)N[C@H](C(=O)N[C@@H](CCC(=O)O)C(=O)N[C@@H](CCCCN)C(=O)N[C@@H](CC(N)=O)C(=O)N[C@@H](CO)C(=O)NCC(=O)N[C@@H](CC(C)C)C(=O)N[C@@H](Cc1ccc(O)cc1)C(=O)O)[C@@H](C)O [Peptide 1553.04]	> 20000 nM	68 nM	58 nM	513 nM	–
CC[C@H](C)[C@H](N)C(=O)N[C@@H](CO)C(=O)N[C@@H](CCC(=O)O)C(=O)N[C@@H](Cc1ccc(O)cc1)C(=O)N[C@@H](CCCNC(=N)N)C(=O)N[C@@H](Cc1c[nH]cn1)C(=O)N[C@@H](Cc1ccc(O)cc1)C(=O)N[C@@H](CS)C(=O)N[C@@H](Cc1ccc(O)cc1)C(=O)O [Peptide 1571.27]	264 nM	62 nM	38 nM	> 20000 nM	–
ASDVTACPYNY [Peptide 9012.0176]	2440 nM	205 nM	18 nM	5830 nM	–
ATCVSHRGLY [Peptide 1580.22]	4210 nM	–	–	492 nM	–
ATDVSHRGLY [Peptide 1593.10]	1620 nM	15 nM	26 nM	18 nM	–
ATTDLTIVY [Peptide 1549.51]	–	109 nM	–	163 nM	–
CQDKILTHY [Peptide 86.0141]	–	188 nM	914 nM	8900 nM	–
CTDKILEHY [Peptide 1593.14]	> 20000 nM	–	110 nM	> 20000 nM	–
CTSASNPSPQY [Peptide 9012.0170]	> 20000 nM	484 nM	535 nM	549 nM	–
DSDQILVGY [Peptide 1593.12]	> 20000 nM	> 20000 nM	–	> 20000 nM	–
DSVQILVGY [Peptide 86.0147]	–	–	1930 nM	2.8 nM	–
DSVSSTCRY [Peptide 86.0156]	> 20000 nM	994 nM	3060 nM	12 nM	–
ETDEEITGYLY [Peptide 9012.0180]	277 nM	–	6.4 nM	27 nM	–
ETDLDMLRHLY [Peptide 9012.0172]	1500 nM	10 nM	9.6 nM	4.4 nM	–
EVDYVGLYY [Peptide 1580.33]	4.5 nM	> 20000 nM	3.6 nM	161 nM	–
FTSMPNPEGRY [Peptide 9012.0174]	170 nM	104 nM	10 nM	2.8 nM	–
GTDQATPGPAY [Peptide 9012.0160]	–	234 nM	–	3850 nM	–
HTASNPPAQY [Peptide 9012.0142]	21 nM	1.8 nM	–	0.54 nM	–
ISDSYTYY [Peptide 9012.0102]	1990 nM	9110 nM	–	8550 nM	–
ISDYRHYCY [Peptide 1571.26]	9.9 nM	–	9.4 nM	> 20000 nM	–
ITDNNNGTY [Peptide 9012.0120]	15600 nM	21 nM	32 nM	460 nM	–
ITSPPDSSY [Peptide 9012.0118]	16500 nM	8.8 nM	1720 nM	462 nM	–
IVEGQVDYY [Peptide 1580.29]	> 20000 nM	–	188 nM	> 20000 nM	–
KMVELVHFL	–	–	–	–	binding to HLA-A24 (column 6; no allele head shown for these rows) (HLA-A24): 0.0043; A2.1 (HLA-A*0201 (HLA-A2.1)): 0.16; binding to HLA-A2.1 (column 3; no allele head shown for these rows) (HLA-A*0201 (HLA-A2.1)): 0.13; A2 Bind. (A2.1 HLA molecules): 0.1600
KMVELVHFLL	–	–	–	–	binding to HLA-A24 (column 6; no allele head shown for these rows) (HLA-A24): 0.0008; binding to HLA-A2.1 (column 3; no allele head shown for these rows) (HLA-A*0201 (HLA-A2.1)): 0.071; A2 (A2.1 HLA molecules): 0.2200; A2 Bind. (A2.1 HLA molecules): 0.1100
KSAIVTLTY [Peptide 1580.20]	–	5.7 nM	9.2 nM	> 20000 nM	–
KTDILTVTY [Peptide 1593.11]	> 20000 nM	922 nM	–	> 20000 nM	–

Compound	IC50 (A*2902)	IC50 (A*3002)	IC50 (HLA-A1 (A*0101))	IC50 (A*2601)	also measured
KTGILTVTY [Peptide 86.0146]	3390 nM	20 nM	855 nM	> 20000 nM	–
KVADLVGFLL	–	–	–	–	binding to HLA-A24 (column 6; no allele head shown for these rows) (HLA-A24): 0.0070; binding to HLA-A2.1 (column 3; no allele head shown for these rows) (HLA-A*0201 (HLA-A2.1)): 0.041; A2 Bind. (A2.1 HLA molecules): 0.0560
KVLEYVIKV	–	–	–	–	binding to HLA-A24 (column 6; no allele head shown for these rows) (HLA-A24): 0; binding to HLA-A2.1 (column 3; no allele head shown for these rows) (HLA-A*0201 (HLA-A2.1)): 0.095; A2 Bind. (A2.1 HLA molecules): 0.0900
LQDKIIDHY [Peptide 1580.21]	> 20000 nM	2770 nM	–	> 20000 nM	–
LQDKILDHY [Peptide 1580.27]	> 20000 nM	926 nM	66 nM	7410 nM	–
LSDALEIPY [Peptide 1549.41]	1600 nM	8690 nM	12 nM	629 nM	–
LSSALEIPY [Peptide 1549.01]	–	83 nM	25 nM	4110 nM	–
LTDKIIDHY [Peptide 1593.09]	> 20000 nM	6800 nM	–	> 20000 nM	–
LTDKILDHY [Peptide 1593.16]	4420 nM	–	3.1 nM	804 nM	–
LTQRNPQLCY [Peptide 9012.0151]	–	7.1 nM	6.9 nM	21 nM	–
LTSALEIPY [Peptide 1549.40]	–	161 nM	57 nM	358 nM	–
LVLGTLEEV	–	–	–	–	binding to HLA-A24 (column 6; no allele head shown for these rows) (HLA-A24): 0.0003; binding to HLA-A2.1 (column 3; no allele head shown for these rows) (HLA-A*0201 (HLA-A2.1)): 0.032; A2 (A2.1 HLA molecules): 0.0320; A2 Bind. (A2.1 HLA molecules): 0.0320; A2.1 relative binding (ratio of binding of test peptide relative to standard peptide) (A2.1 HLA molecules): 0.032
MTETLNNTEY [Peptide 1593.15]	471 nM	–	77 nM	1620 nM	–
NTGILTVTY [Peptide 86.0152]	1400 nM	8720 nM	–	3150 nM	–
QTEPDTSNY [Peptide 1549.44]	> 20000 nM	–	–	4980 nM	–
RALAETSYV	–	–	–	–	binding to HLA-A24 (column 6; no allele head shown for these rows) (HLA-A24): 0; binding to HLA-A2.1 (column 3; no allele head shown for these rows) (HLA-A*0201 (HLA-A2.1)): 0.014; A2 (A2.1 HLA molecules): 0.0100; A2 Bind. (A2.1 HLA molecules): 0.0100
STDLRDHIDY [Peptide 1580.18]	> 20000 nM	–	25 nM	9580 nM	–
TTEPEAQNTTY [Peptide 9012.0166]	1330 nM	–	2.1 nM	530 nM	–
TTSPLNTSY [Peptide 9012.0116]	–	12 nM	–	2.6 nM	–
TTSPSYTY [Peptide 9012.0100]	213 nM	323 nM	–	3440 nM	–
VMIAMEGGHA	–	–	–	–	binding to HLA-A24 (column 6; no allele head shown for these rows) (HLA-A24): 0; binding to HLA-A2.1 (column 3; no allele head shown for these rows) (HLA-A*0201 (HLA-A2.1)): 0.0023; A2 Bind. (A2.1 HLA molecules): 0.0360
VQDKILDIY [Peptide 1580.32]	> 20000 nM	3810 nM	–	> 20000 nM	–
VSEFRWYRY [Peptide 1549.02]	1520 nM	–	33 nM	> 20000 nM	–
VTDSRNTKY [Peptide 1580.30]	> 20000 nM	–	25 nM	> 20000 nM	–
VTQGNLELTY [Peptide 9012.0147]	–	23 nM	90 nM	6720 nM	–
YVIKVSARV	–	–	–	–	binding to HLA-A24 (column 6; no allele head shown for these rows) (HLA-A24): 0; binding to HLA-A2.1 (column 3; no allele head shown for these rows) (HLA-A*0201 (HLA-A2.1)): 0.018; A2 Bind. (A2.1 HLA molecules): 0.0140
